# Experimental data as given in patent US5541232A, “Treatment of multidrug resistant diseases” (Chemex Pharmaceuticals, Inc., priority 1994, dated 1996).
# pIC50: −log10 of the molar value. “Also recorded” adds a separate entry of the source. Where two headings read alike, the source gives them in different places.
# Assays:
# mammals = conditions: in vivo; cited from earlier work
# [1] = test system: KB-3-1 human cervical carcinoma cells; experiment: initial influx of VBL, KB-3-1; assay type: cell-based; conditions: 50 μM masoprocol added concurrently with VBL, 3 to 24 seconds; FIG. 4b
# Experimental: A further test was conducted to show the effect of masoprocol on the initial influx of VBL. Cells were exposed to media containing [^3 H]VBL with and without 50 μM masoprocol. After incubation times ranging from 3 seconds to 24 seconds, the media was removed. The amount of VBL taken up by the cells was determined as described in A. The data was summarized from four replicate experiments. FIG. 4apresents the results for the GRC-1 cell line, and FIG. 4b for the KB-3-1 cell line.
# [2] = test system: GRC-1 multidrug resistant human cervical carcinoma cells; experiment: steady state accumulation of VBL, GRC-1; assay type: cell-based
# Experimental: (§1) At the desired time, the medium was aspirated and cells washed 5 times with ice cold PBS. Cells were digested overnight in 1N NaOH, at which time aliquots were used to determine protein content and radioactivity. The final concentration of VBL was 6 nM.
# (§2) Cells were incubated for one hour with media containing either tritiated vinblastine (^3 H]VBL) alone or containing [^3 H]VBL with 50 μM masoprocol. Cells were then washed with ice cold PBS and the amount of VBL accumulated in cells was determined using a scintillation counter. In FIG. 1 each data point represents the mean of replicate experiments performed with duplicate cultures. Vertical bars are +/- S.D.
# [3] = test system: GRC-1 multidrug resistant human cervical carcinoma cells; experiment: efflux of VBL, GRC-1; assay type: cell-based; conditions: 50 μM masoprocol
# Experimental: (§3) A further test was conducted to show the effect of masoprocol on the efflux of VBL from cells. Cells were incubated with [^3 H]VBL with or without 50 μM masoprocol for 2 hours. The medium was then replaced with drug-free medium. After incubation for various times, the amount of VBL remaining in the cells was determined as described above. The data was presented in terms of the percentage of VBL remaining at various efflux times compared to VBL in cells with an efflux time of zero. In FIGS. 3a and 3b, efflux is expressed as pmol VBL. In FIGS. 3c and 3d, efflux is expressed as percentage of VBL levels at time zero.
# [4] = test system: KB-3-1 human cervical carcinoma cells; experiment: modulation of cisplatin uptake; assay type: cell-based; conditions: one hour, 5 μM cisplatin; FIG. 5
# Experimental: Subconfluent cultures of KB-3-1 cells were incubated with [^3 H]cisplatin (cis-DDP) in culture medium or in medium containing the indicated concentrations of masoprocol as presented in FIG. 5. After one hour incubation, the medium was aspirated and the cells washed 5 times with ice cold PBS. Cells were digested overnight in 1N NaOH, at which time aliquots were used to determine protein content and radioactivity. The final concentration of cisplatin was 5 μM. Each data point represents the mean of triplicate dishes from replicate experiments. The vertical bars are +/- standard deviations.
# stability to oxidation = assay type: physicochemical; conditions: for example, by air
# Source text: The pH of the formulation is important in assuring stability of NDGA or its analogue as well as assuring that the formulation is physiologically acceptable to the patient. […] Such oxidation can result in discoloration of the formulation rendering it unacceptable for pharmaceutical use. […] Therefore, it is preferred that if the formulation is to be exposed to oxidizing conditions the pH to be maintained below about 7 and preferably below about 6 in order to provide maximum stability for the compound against oxidation. However, if the oxidizing conditions can be avoided, for example, by storage of the formulation under an inert atmosphere such as nitrogen, a higher pH can be used. The pH of the formulation may be maintained through the use of toxicologically-acceptable buffers. Such buffers are well-known in the pharmaceutical formulation art, and include hydrochloric acid buffer, acid phthalate buffer, phosphate buffer and citric acid/sodium citrate buffer.
# [5] = test system: KB-3-1 human cervical carcinoma cells; experiment: inhibition of colony formation, KB-3-1; assay type: cell-based; conditions: KB 3-1, 240 h, read-out: IC50 (Masoprocol), 50% inhibition of colony formation, 10 days, 37° C., parenthesis: standard deviation
# Source text: (§4) To investigate whether masoprocol modulates multidrug resistance, a line of multidrug resistant (GRC-1) cells which were derived from parenteral drug sensitive human cervical carcinoma (KB-3-1) cells by transfection of the mdr1 genes were employed. Such transfection was by the method set forth in Choi, et al., Cell 53:519-529, 1989. These cell lines differ only with respect to the over-expression of P-glycoprotein. These tests were designed to examine whether masoprocol modulates tumor cell drug resistance by interfering with P-glycoprotein function. […] See, Regulation of initial vinblastine influx by P-glycoprotein, Shalinsky, et al., cited above.
# Masoprocol was provided by Chemex Pharmaceuticals, Inc. (Fort Lee, N.J.). Tritiated vinblastine ([^3 H]VBL) (10 Ci mmol^-1) was purchased from Moravek Biochemicals (Brea, Calif.), stored in the dark at -80° C. and protected from light during the experiments. […]
# (§5) First, cells which had been seeded at 200-300 cells/dish were incubated in media containing masoprocol or VBL. After an incubation period of 10 days at 37° C. the cells were fixed with methanol and stained with Giemsa, and the number of colonies per dish were counted and expressed as a percent of the number of colonies in control conditions. […] Parenthesis indicate standard deviations determined from replicate experiments.
# [6] = test system: KB-3-1 human cervical carcinoma cells; experiment: efflux of VBL, KB-3-1; assay type: cell-based; conditions: 50 μM masoprocol
# Experimental: as §3
# malignant melanoma = conditions: in vivo; cited from earlier work
# normal cells = experiment: toxicity to normal cells as opposed to cancer cells; assay type: cell-based
# P-glycoprotein = P-glycoprotein substrate; assay type: cell-based, human; conditions: inferred from colony formation in GRC-1 vs KB-3-1
# Source text: as §4, §5
# [7] = test system: Hs 68 Newborn Foreskin Fibroblasts; experiment: in vitro cytotoxicity, normal cells; assay type: cell-based; conditions: Homo sapiens, read-out: IC50
# [8] = test system: KB-3-1 human cervical carcinoma cells; experiment: steady state accumulation of VBL, KB-3-1; assay type: cell-based
# Experimental: as §1, §2
# [9] = test system: OVCAR3 ovarian cancer cells; experiment: in vitro cytotoxicity anti tumor activity; assay type: cell-based; conditions: Homo sapiens, read-out: IC50
# [10] = one hour, masoprocol with [3H]VBL
structure (smiles),measurement,setting,value
"C[C@H](Cc1ccc(O)c(O)c1)[C@@H](C)Cc1ccc(O)c(O)c1 [Masoprocol, meso-1,4-bis (3,4-dihydroxyphenyl)-2,3-dimethylbutane]",retarding senescence or aging,mammals,having efficacy in retarding senescence or aging in mammals
same,initial VBL uptake (influx),[1],substantial increase in initial VBL uptake; also recorded: effective modulator of initial VBL influx; also recorded: promotes the initial uptake of VBL
same,"steady state accumulation of VBL, compared with verapamil",[2]; 50 μM masoprocol,comparable to that of 10 μM verapamil
same,steady state accumulation of VBL,[2]; [10],dose-dependent increase in the steady state accumulation of VBL; also recorded: increases the steady state accumulation of VBL
same,modulation of VBL efflux,[3],does not modulate VBL efflux
same,VBL levels at efflux time zero,"[3]; 2 hours, FIG. 3a",higher in masoprocol-treated cells
same,percent of VBL retained at various efflux time points,[3]; FIG. 3c,not affected by masoprocol treatment
same,modulation of VBL efflux,[3]; listed as masoprocol,does not influence the rate of efflux of VBL
same,increase in uptake of cisplatin,[4],about 25%
same,susceptibility to oxidation,stability to oxidation,susceptible to oxidation
same,pIC50,[5],4.36
same,modulation of VBL efflux,[6],does not modulate VBL efflux
same,VBL levels at efflux time zero,"[6]; 2 hours, FIG. 3b",higher in masoprocol-treated cells
same,percent of VBL retained at various efflux time points,[6]; FIG. 3d,not affected by masoprocol treatment
same,modulation of VBL efflux,[6]; listed as masoprocol,does not influence the rate of efflux of VBL
same,result against malignant melanoma,malignant melanoma,positive result
same,toxicity to normal cells versus doxorubicin,normal cells,less toxic than doxorubicin
same,P-glycoprotein substrate,P-glycoprotein,not a substrate for P-glycoprotein
same,pIC50,"[7]; Hs68, 1 h, One Hour Pulse Treatment",3.75
same,pIC50,"[7]; Hs68, Continuous Drug Exposure, observation at 70 hours",4.74
same,"steady state accumulation of VBL, compared with verapamil",[8]; 50 μM masoprocol,comparable to that of 10 μM verapamil
same,steady state accumulation of VBL,[8]; [10],dose-dependent increase in the steady state accumulation of VBL; also recorded: increases the steady state accumulation of VBL
same,pIC50,"[9]; OVCAR-3, 1 h, One Hour Pulse Treatment",3.59
same,pIC50,"[9]; OVCAR-3, Continuous Drug Exposure, observation at 70 hours",4.44
